Melting point data for two molecules are collected here from patent US7022694B2, “Indoles and indolines having 5-HT activity” (Pharmacia & UpJohn Company, priority 2001, dated 2006).

As for `CN1CCc2ccc3cc[nH]c3c2CC1`, the melting point lay within 150 to 153 °C.

Molecule `c1cnc2c(OCCn3ccc4ccc5c(c43)CCNCC5)cccc2c1` [Example 6, 1-[2-(8-Quinolinyloxy)ethyl]-1,6,7,8,9,10-hexahydroazepino[4,5-g]indole] registered a melting point of 129 to 132 °C.

For orientation: melting point means the temperature of the solid-liquid transition.
